Source: PMC6923382, “Small molecules that inhibit TNF signalling by stabilising an asymmetric form of the trimer” (Nature Communications, 2019)
Values joined by “and” are separate entries in the source; they are usually repeats but may differ in a detail not shown here. Identical values can stand only once. “Also recorded” adds a separate entry of the source.

Key:
mouse TNF = biological target: T1, mouse TNF (Mus musculus, UniProt P06804); experiment: TNF reporter gene assay HEK-293, mouse TNF; format: cell-based; conditions: HEK-293 NF-kB reporter gene assay
T1 construct: stabilise an asymmetrical form of the soluble TNF trimer
T1 sequence (P06804 80-235 limits assumed): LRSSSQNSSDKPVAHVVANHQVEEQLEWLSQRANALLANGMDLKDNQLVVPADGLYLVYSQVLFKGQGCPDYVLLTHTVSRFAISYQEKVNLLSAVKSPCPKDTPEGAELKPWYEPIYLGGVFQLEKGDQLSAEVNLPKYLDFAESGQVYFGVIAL
Protocol: (§1) Stimulation of HEK-293 cells by TNF leads to activation of the NF-κB pathway. The HEK-Blue^TM CD40L SEAP (secreted embryonic alkaline phosphatase) reporter cell line used to determine TNF activity (InvivoGen, #hkb-CD40, cells were described as mycoplasma free when purchased and were tested using Mycoalert [Lonza] after each batch of assay vial preparation). Compounds were titrated in DMSO and pre-incubated with TNF at a concentration giving half maximal response (10 pM for human or 20 pM for mouse) or the anti-human TNFR1 agonist antibody (R&D Systems. #AF 225) for 1 h. Cells were added to the compound/stimulus mixture and further incubated for 18 h. SEAP was measured using the colorimetric substrate HEK-Blue Detect^TM or QUANTI-Blue^TM from InvivoGen. Percentage inhibitions for compound dilutions were calculated between a DMSO control and maximum inhibition (by excess anti-TNF biologic, or NF-κB inhibitor–TPCA-1 [Tocris #2559, R&D Systems]). The IC50 was determined as the point of inflexion between the fitted minimum and maximum of the compound dose response curve, calculated using 4PL fitted curve. Mean IC50s are reported as a mean of at least two experiments. Dose response curves for TNF and the anti-human TNFR1 agonist antibody are shown in Supplementary Fig. 9.

Balb/c mice (CAIA model) = experiment: Collagen antibody induced arthritis (CAIA) model; format: in vivo, mouse; parameters: key to Daily arthritis score: 0 = no arthritis, 3 = wrist/ankle, pad and digits affected; conditions: Ab501 i.v. then s.c.; for Daily arthritis score: individual mice, UCB-9260 150 mg/kg po bid
Protocol: Ab501 (in-house anti-mouse TNF antibody, […]) was administered intravenously 6 h post-LPS administration followed by three further doses administered subcutaneously at 48-h intervals. Animals were scored for signs of arthritis and weighed daily. The following scoring system was used for signs of arthritis: 0-no arthritis, 1-wrist/ankle affected, 2-wrist/ankle and pad affected and 3-wrist/ankle, pad, and digits affected. Data shown as the mean ± standard error of arthritis clinical score for the treatment group. Statistical significance (*p < 0.05, **p < 0.01) was determined using one-way ANOVA with Dunnett’s multiple comparison test.

human TNF superfamily = experiment: Thermal denaturation, human TNF superfamily; format: binding; conditions: 100 µM compound, 0.1 mg/mL sample; single experiment
Protocol: A fluorescence probed thermal denaturation assay was performed to assess the effect of the compounds on the thermal stability of TNF (or other members of the TNF family) as a measure of compound binding. The reaction mixture contained 5 µL of 30× SYPRO® Orange dye (Invitrogen) and 5 µL of TNF (at 1 mg/mL), 37.5 μL PBS, pH 7.4 and 2.5 μL of compound (at 2 mM in DMSO). The mixture (10 µL) was dispensed in quadruplicate into a 384 PCR optical well plate and was run on a 7900HT Fast Real-Time PCR System ([…]). The PCR System heating device was set at 20 °C to 99 °C with a ramp rate of 1.1 °C min^−1; fluorescence changes in the wells were monitored by a CCD device. The fluorescence intensity increase was plotted as a function of temperature and the Tm calculated as the midpoint of this denaturation curve (determined as the point of inflection).
Compound based thermal stability increase (oC)
100 µM compound 0.1 mg/mL sample […]
compared to human TNF. Human proteins were provided through a collaboration with Beryllium. Data from a single experiment. […]
compared to mouse TNF. Mouse proteins were purchased from R&D Systems. (Note: No Tm for Lymphotoxin (LTa) was detected in this assay making a change in Tm unmeasurable).
Data from a single experiment.
(also on this page, place not known: 16.0Thermal 10Thermal stability difference (oC) stability increase (oC))

[1] = system: TNFR1 signalling complex (RIP-1, pNF-κB); experiment: TNFR1 immunoprecipitation and signalling assay (Jurkat cells); format: cell-based, human; conditions: 10 µM compound pre-incubated 1 h with TNF 25 ng/mL, Western blot
Protocol: Cells were then lysed for 1 h in cold lysis buffer (1% NP-40, 150 mM NaCl, 50 mM Tris pH 8.0, 25 mM NaF, 1 mM vanadate, 1% phosphatase inhibitor and 0.2% protease inhibitor cocktail), and cell supernatant harvested. TNFR1 immunoprecipitation was performed by incubating supernatant with 5 µg anti-TNFR1 antibody (R&D systems, #AB-225-PB) overnight while rotating at 4 °C, followed by the addition of 20 µL protein G sepharose beads for 1 h rotating at 4 °C. An isotype control sample was incubated with 5 µg goat IgG, instead of anti-TNFR1 antibody to assess how much unspecific binding to the beads occurs during immunoprecipitation. Beads were subsequently washed 3× in lysis buffer, and then the supernatant removed and SDS-PAGE reducing sample buffer added to beads and samples boiled for 10 min. Sample (15 µL) was then loaded on a 4–12% Bis-Tris gel and run for 65 min at 200 V in MOPS buffer. […] RIP-1 ubiquitination (1:250 dilution, BD, #610459) was then detected by Western blotting using anti-mouse-HRP (1:2000 dilution, Cell Signalling Technology, #7076). pNFκB (1:1000 dilution, Cell Signalling Technology, #3033) and GAPDH (1:4000 dilution, Cell Signalling Technology, #5174) were measured in the total cell lysates by Western blotting using anti-rabbit HRP (1:2000 dilution, Cell Signalling Technology, #7074). […]

TNF (L57F) = biological target: T2, TNF (L57F) (Homo sapiens, UniProt P01375, L133F); experiment: HEK reporter gene assay, L57F TNF; format: cell-based; conditions: 10 pM L57F TNF; HEK NFκΒ reporter
T2 construct: Human TNF (CID2043, UniProt P01375 residues 77–233); 6XHis-Smt3 (N, cleaved yes); host or cells: E. coli
Protocol: as §1, with “9. […]” for “9.”
In this assay reduction is luminescence is due to cell killing by TNF and inhibition causes increased luminescence. […]

T2 sequence (P01375 77-233 L133F): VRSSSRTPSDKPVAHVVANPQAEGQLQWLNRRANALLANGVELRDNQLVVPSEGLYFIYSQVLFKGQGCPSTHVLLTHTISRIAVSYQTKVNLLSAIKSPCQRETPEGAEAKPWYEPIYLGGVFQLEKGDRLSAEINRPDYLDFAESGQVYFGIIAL

Q: With Cc1ccc(C)c(Cn2c(C(O)c3ccncc3)nc3ccc(-c4cnn(C)c4)cc32)c1 (stereo not shown) [UCB-9260] as the compound, how does the IC50 (mouse TNF) read?
A: Its IC50 is 95 nM.

Q: What about the Daily arthritis score (Balb/c mice (CAIA model); Day 0) of the same compound?
A: The Daily arthritis score was 0.

Q: And the Daily arthritis score (Balb/c mice (CAIA model); Day 1)?
A: Its Daily arthritis score is 0.

Q: And the Daily arthritis score (Balb/c mice (CAIA model); Day 2)?
A: Its Daily arthritis score is 0.

Q: What about the Daily arthritis score (Balb/c mice (CAIA model); Day 3, 150 mg/kg) of the same compound?
A: The Daily arthritis score was 0 and 2 and 1.

Q: And the Daily arthritis score (Balb/c mice (CAIA model); Day 4, 150 mg/kg)?
A: Its Daily arthritis score is 3 and 0 and 1 and 2.

Q: And the Daily arthritis score (Balb/c mice (CAIA model); Day 5, 150 mg/kg)?
A: Its Daily arthritis score is 2 and 0 and 1 and 3.

Q: And the Daily arthritis score (Balb/c mice (CAIA model); Day 6, 150 mg/kg)?
A: Its Daily arthritis score is 1 and 0 and 2 and 3.

Q: What about the Daily arthritis score (Balb/c mice (CAIA model); Day 7, 150 mg/kg) of the same compound?
A: Its Daily arthritis score is 0 and 2 and 3 and 1.

Q: And the “effect on arthritis clinical score” value (Balb/c mice (CAIA model); UCB-9260 150 mg/kg po bid from 6 h after LPS)?
A: The value was “significant reduction of the clinical score”.

Q: And the “change in Tm of other human TNF superfamily members” value (human TNF superfamily)?
A: Its value is “negligible effect; also recorded: No other protein tested showed a significant change in Tm”.

Q: What about the “RIP recruitment to TNFR signalling complex and phosphorylation of NF-κB” value [1] of the same compound?
A: The value was “markedly reduced”.

Q: What about the “inhibition of L57F TNF” value (TNF (L57F)) of the same compound?
A: Its value is “did not inhibit; also recorded: no activity”.
